PubChem BioAssay (NCI)
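Each compound was tested at five concentrations against cells in 96-well plates for 48 hours. GI50 = concentration required for 50% inhibition of growth. TGI is the concentration that stops growth completely.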

What was measured:
Test in all cases: NCI tumour cell line growth inhibition, 48 h
SF-539 CNS = test system: SF-539 CNS
SN12C renal = test system: SN12C renal
PC-3 prostate = test system: PC-3 prostate
SF-295 CNS = test system: SF-295 CNS
HCT-15 colon = test system: HCT-15 colon
TK-10 renal = test system: TK-10 renal
HOP-92 NSCLC = test system: HOP-92 NSCLC
COLO 205 colon = test system: COLO 205 colon
OVCAR-3 ovarian = test system: OVCAR-3 ovarian
SR leukemia = test system: SR leukemia

COc1cc(/C=C2\CN(S(=O)(=O)c3ccc(C)cc3)C/C(=C\c3cc(CN4CCCC4)c(O)c(OC)c3)C2=O)cc(CN2CCCC2)c1O
GI50 (SF-539 CNS): 1600 nM
TGI (SF-539 CNS): 3100 nM
GI50 (SN12C renal): 1240 nM
TGI (SN12C renal): 2800 nM
GI50 (PC-3 prostate): 1560 nM
TGI (PC-3 prostate): 3670 nM
GI50 (SF-295 CNS): 2230 nM
TGI (SF-295 CNS): 5070 nM
GI50 (HCT-15 colon): 1940 nM
TGI (HCT-15 colon): 5830 nM
GI50 (TK-10 renal): 1860 nM
TGI (TK-10 renal): 3490 nM
GI50 (HOP-92 NSCLC): 1150 nM
TGI (HOP-92 NSCLC): 3830 nM
GI50 (COLO 205 colon): 568 nM
TGI (COLO 205 colon): 2030 nM
GI50 (OVCAR-3 ovarian): 1070 nM
TGI (OVCAR-3 ovarian): 2350 nM
GI50 (SR leukemia): 412 nM
TGI (SR leukemia): 3450 nM
